These results are taken from patent EP0915894B1, “NUCLEOTIDE ANALOGS” (GILEAD SCIENCES, INC., priority 1996, dated 1998).

One series has as its system HIV-1(IIIB). In words: Antiviral activity against HIV-1(IIIB) in MT-2 cells (tissue culture). It is filed as cell-based. The conditions noted are these: for SI - Selectivity Index(CC50/IC50): CC50/IC50, HIV-1, MT-2 cells; for IC50: Human immunodeficiency virus 1, MT2, HIV-1(IIIB), MT-2 cells, read-out: IC50 (50% inhibitory concentration).
The subject of the next series is MT-2 cells. In words: Cytotoxicity in MT-2 cells (concentration to kill 50% of the cells). It is filed as cell-based.
Series [1] in a line: Chemical (solution) stability of PMPA carbonates. It counts as physicochemical. The conditions noted are these: compared with preferred t 1/2 at pH 7.4 (> 2-12 hours) and at pH 2.0 (> 1, 10 or 100 hours). The method, then: The solution stability of PMPA carbonates was studied at pH 7.4 at 37°C in 10 mM buffer (NaH2PO4 and Na2HPO4) with the total ionic strength adjusted to 0.15 M with KCl. The assays were performed by adding 200 µL of a PMPA carbonate stock solution (about 1 mg/mL in DMSO) to 10 mL of pre-equilibrated buffer at 37°C. Samples were removed at specific times points and analyzed by HPLC. The chemical t 1/2 is expressed in terms of the number of hours required to hydrolyze 50% of the carbonate at the specified pH.

A short description of series [2]: Cytotoxicity in MT-2 cells (concentration to kill 50% of the cells). It counts as cell-based. As to conditions: human.
Description: (§1) PMPA (9-[(R)-2-(phosphonomethoxy)propyl]adenine) and PMPA carbonates were examined to determine their activity against HIV-1.

A value given as a limit tells only on which side of the number the result lay.

Description for HIV-1(IIIB): as §1
Description for physchem: as §1

Take `CCOC(=O)OCOP(=O)(CO[C@H](C)Cn1cnc2c(N)ncnc21)OCOC(=O)OCC` [5a]: in the series on HIV-1(IIIB), the “SI - Selectivity Index(CC50/IC50)” value was 20000 and the IC50 amounted to 2 nM. The compound also came in with a CC50 with MT-2 cells of 40 µM.

As to `CC(C)COC(=O)OCOP(=O)(CO[C@H](C)Cn1cnc2c(N)ncnc21)OCOC(=O)OCC(C)C` [5c], in the series on HIV-1(IIIB), the “SI - Selectivity Index(CC50/IC50)” value was 30000 and the IC50 is less than 1 nM. In the series with MT-2 cells, this compound registered a half-maximal cytotoxic concentration (CC50) of 30 µM.

Regarding `C[C@H](Cn1cnc2c(N)ncnc21)OCP(=O)(OCOC(=O)OC(C)(C)C)OCOC(=O)OC(C)(C)C` [5d], in the series with HIV-1(IIIB), the “SI - Selectivity Index(CC50/IC50)” value stood at 50 and the IC50 was 200 nM. In the series with HIV-1(IIIB) (anti-HIV-1 activity relative to PMPA), the “increased potency / activity compared to PMPA” value is listed as 2.5 fold. The “t 1/2 (chemical stability)” value in series [1] is recorded as “less stable than these parameters”. Further, the CC50 with MT-2 cells came to 10 µM.

Take `C[C@H](Cn1cnc2c(N)ncnc21)OCP(=O)(OCOC(=O)OCC(C)(C)C)OCOC(=O)OCC(C)(C)C` [5e]: in the series on HIV-1(IIIB), the “SI - Selectivity Index(CC50/IC50)” value is listed as 3000 and the IC50 was less than 1 nM. Besides, the CC50 with MT-2 cells amounted to 3 µM.

As for `CC(C)OC(=O)OCOP(=O)(CO[C@H](C)Cn1cnc2c(N)ncnc21)OCOC(=O)OC(C)C` [5f], in the series on HIV-1(IIIB), the “SI - Selectivity Index(CC50/IC50)” value came out at 16600 and the IC50 was determined as 3 nM. For the same compound, the CC50 in the series on MT-2 cells amounted to 50 µM.

As to `CCC(CC)OC(=O)OCOP(=O)(CO[C@H](C)Cn1cnc2c(N)ncnc21)OCOC(=O)OC(CC)CC` [5g], in the series on HIV-1(IIIB), the “SI - Selectivity Index(CC50/IC50)” value was 40000 and the IC50 is less than 1 nM. The midpoint of cytotoxicity with MT-2 cells, the CC50, lay at 40 µM.

Regarding `C[C@H](Cn1cnc2c(N)ncnc21)OCP(=O)(O)O` [compound 2, 9-[(R)-2-(phosphonomethoxy)propyl]adenine, reference compound], in the series on HIV-1(IIIB), the “SI - Selectivity Index(CC50/IC50)” value came out at 500 and the IC50 was found to be 500 nM. The compound further yielded a cytotoxic concentration (CC50) in series [2] of 250 µM. Further, in the series “physchem”, the lipophilicity (logP) is -2.5.
